These results are taken from patent publication US11028078B2 (The Johns Hopkins University, priority 2011, dated 2021).

Data set [1] concerns MB cultures derived from Ptch−/+; p53−/− mice. As to the kind of experiment: Medulloblastoma (MB) proliferation assay. It is filed as cell-based, mouse. The note with it: mouse medulloblastoma cultures, 96 h; relative to itraconazole. The method, boiled down:
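Neurosphere cultures from Ptch−/+; p53−/− mouse medulloblastoma allografts (1×10^4 cells/well) were exposed to several analogue concentrations for 96 h. Relative cell number was measured with the CellTiter 96 AQueous One absorbance assay. IC50 and IC90 were fitted from dose-response curves normalised to control.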

Another data set has as its system HUVEC. The experiment in a line: HUVEC proliferation assay ([3H]thymidine incorporation). In kind it is cell-based, human. The note with it: HUVEC; for IC50: Homo sapiens, 3H thymidine incorporation, in μM, read-out: Proliferation IC50. Put shortly:
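Pooled HUVEC at passage eight or lower, grown in EGM-2 medium; proliferation measured by [3H]thymidine incorporation as in an earlier published protocol.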

Another data set concerns VEGFR2. The experiment in a line: VEGFR2 glycosylation in HUVEC (Western blot scoring). Also: key: ++: robust; +: intermediate; −: absent. The note with it: VEGFR2 hypoglycosylation score in HUVEC, 2 μM, 24 h. In kind it is cell-based, human.
The subject of the next data set is Gli1 transcript. The experiment in a line: Quantification of Gli1 transcript by TaqMan analysis in MB cells (Hh pathway). In kind it is cell-based, mouse. To be noted: Gli1 transcript fold induction score; MB cells exposed 24 h at the IC90 for MB proliferation. The method, boiled down:
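After drug exposure, total RNA extracted from MB cells, reverse transcribed, and Gli1 quantified by TaqMan qPCR with mouse Gli-1 and actin primer/probe sets. Values expressed as fold induction relative to control by the 2^−ΔΔCt method, normalized to actin.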

The target of another data set is T1, CYP3A4 (Homo sapiens, UniProt P08684).
T1 construct: purchased ThermoFisher P2857; host or cells: baculosomes
T1 sequence (P08684 whole entry): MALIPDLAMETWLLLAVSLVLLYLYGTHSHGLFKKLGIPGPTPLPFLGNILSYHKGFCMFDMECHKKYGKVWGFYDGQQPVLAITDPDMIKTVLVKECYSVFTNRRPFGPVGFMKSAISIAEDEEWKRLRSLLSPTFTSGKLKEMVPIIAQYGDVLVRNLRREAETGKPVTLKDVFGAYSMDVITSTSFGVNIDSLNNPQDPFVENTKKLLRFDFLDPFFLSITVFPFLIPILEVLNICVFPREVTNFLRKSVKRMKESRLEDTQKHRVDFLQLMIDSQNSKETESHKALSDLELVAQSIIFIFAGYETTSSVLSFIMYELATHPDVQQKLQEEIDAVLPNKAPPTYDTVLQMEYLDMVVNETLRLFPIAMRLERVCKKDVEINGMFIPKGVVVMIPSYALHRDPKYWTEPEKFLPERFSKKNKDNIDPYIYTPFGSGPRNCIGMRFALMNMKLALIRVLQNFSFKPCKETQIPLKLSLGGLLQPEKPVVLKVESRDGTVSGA
As to the kind of experiment: CYP3A4 enzyme assay (Vivid CYP3A4 Green Screening Kit). In kind it is in vitro ADME. To be noted: for CYP3A4 Inhibition (compared to intracozanole at 1 μm): % enzyme inhibition at 1 μM drug / % enzyme inhibition at 1 μM itraconazole. As for the experimental part: And CYP3A4 inhibition was initially determined using a cell-free fluorescence-based assay at a final concentration of 1 μM (Table 7).
CYP3A4 enzyme assay. CYP3A4 enzyme activity was tested using Vivid™ CYP3A4 Green Screening Kit (ThermoFisher, #P2857) using the manufacturer's protocol. Briefly, CYP3A4 baculosomes and drugs were incubated 10 min at 37° C. Then Vivid® Substrates were added and the fluorescence (ex/em:485/520) were read every 1 min for 60 minute.

Setting [2] is: IC50 of analog relative to IC50 of itraconazole.

In the case of `N#CCCCCCn1ncn(-c2ccc(N3CCN(c4ccc(OCC5COC(Cn6cncn6)(c6ccc(Cl)cc6Cl)O5)cc4)CC3)cc2)c1=O` [Compound 7u, cis-(2S,4R)-4-[4-[4-[4-[[2-(2,4-Dichlorophenyl)-2-(1H-1,2,4-triazol-1-ylmethyl)-1,3-dioxolan-4-yl]methoxy]phenyl]-]piperazinyl]phenyl]-2,4-dihydro-2-(5-cyanopentyl)-3H-1,2,4-triazol-3-one], the “MB Proliferation (IC50/IC50 Itra)” value in data set [1] is 0.84. Moreover, in the data set with HUVEC (setting [2]), the “Proliferation (IC50/IC50 Itra)” value is 0.18. Moreover, the “Glycosylation (2 μM dose)” value in the data set with VEGFR2 is “++”. For the same compound, the “Gli I Inhibition (IC90 Prolif. dose)” value in the data set on Gli1 transcript was “+ (0.16 to 0.44)”.
The matching figures for `CCC1(Cn2ncn(-c3ccc(N4CCN(c5ccc(OCC6COC(Cn7cncn7)(c7ccc(Cl)cc7Cl)O6)cc5)CC4)cc3)c2=O)COC1` [Compound 7v, cis-(2S,4R)-4-[4-[4-[4-[[2-(2,4-Dichlorophenyl)-2-(1H-1,2,4-triazol-1-ylmethyl)-1,3-dioxolan-4-yl]methoxy]phenyl]-lpiperazinyl]phenyl]-2,4-dihydro-2-((3-ethyloxetan-3-yl)methyl)-3H-1,2,4-triazol-3-one]: 0.74, 0.77, “++” and “+ (0.16 to 0.44)”.
As for `CC1(CCn2ncn(-c3ccc(N4CCN(c5ccc(OCC6COC(Cn7cncn7)(c7ccc(Cl)cc7Cl)O6)cc5)CC4)cc3)c2=O)N=N1` [Compound 7w, cis-(2S,4R)-4-[4-[4-[4-[[2-(2,4-Dichlorophenyl)-2-(1H-1,2,4-triazol-1-ylmethyl)-1,3-dioxolan-4-yl]methoxy]phenyl]-lpiperazinyl]phenyl]-2,4-dihydro-2-(2-(3-methyl-3H-diazirin-3-yl)ethyl)-3H-1,2,4-triazol-3-one], the “MB Proliferation (IC50/IC50 Itra)” value in data set [1] came to 1.32. The “Proliferation (IC50/IC50 Itra)” value with HUVEC (setting [2]) is listed as more than 13.8. For the same compound, the “Glycosylation (2 μM dose)” value with VEGFR2 is given as “+”. The “Gli I Inhibition (IC90 Prolif. dose)” value in the data set with Gli1 transcript was “+ (0.16 to 0.44)”.
In the case of `CC1(CCCCCCCn2ncn(-c3ccc(N4CCN(c5ccc(OCC6COC(Cn7cncn7)(c7ccc(Cl)cc7Cl)O6)cc5)CC4)cc3)c2=O)N=N1` [Compound 7x, cis-(2S,4R)-4-[4-[4-[4-[[2-(2,4-Dichlorophenyl)-2-(1H-1,2,4-triazol-1-ylmethyl)-1,3-dioxolan-4-yl]methoxy]phenyl]-lpiperazinyl]phenyl]-2,4-dihydro-2-(7-(3-methyl-3H-diazirin-3-yl)heptyl)-3H-1,2,4-triazol-3-one], in data set [1], the “MB Proliferation (IC50/IC50 Itra)” value stood at 1.18. The “Proliferation (EC50/IC50 Itra)” value in the data set with HUVEC (footnote g: EC50 of analog relative to IC50 of itraconazole) was 1.1^g. The “Glycosylation (2 μM dose)” value with VEGFR2 was “−”. In addition, the “Gli I Inhibition (IC90 Prolif. dose)” value with Gli1 transcript is given as “− (≥0.45)”.
`O=c1[nH]ncn1-c1ccc(N2CCN(c3ccc(OC[C@H]4CO[C@](Cn5cncn5)(c5ccc(Cl)cc5Cl)O4)cc3)CC2)cc1` [Compound 17a, 4-(4-(4-(4-(((2R,4S)-2-((1H-1,2,4-triazol-1-yl)methyl)-2-(2,4-dichlorophenyl)-1,3-dioxolan-4-yl)methoxy)phenyl)piperazin-1-yl)phenyl)-1H-1,2,4-triazol-5(4H)-one]: in data set [1], the “MB Proliferation (IC50/IC50 Itra)” value was found to be 0.89. The “Proliferation (IC50/IC50 Itra)” value in the data set with HUVEC (setting [2]) was found to be 2.78. The “Glycosylation (2 μM dose)” value in the data set on VEGFR2 is given as “−”. For the same compound, the “Gli I Inhibition (IC90 Prolif. dose)” value in the data set with Gli1 transcript is “++ (≤0.15)”.
Regarding `CCC(C)n1ncn(-c2ccc(N3CCN(c4ccc(OC[C@@H]5CO[C@@](Cn6ccnc6)(c6ccc(Cl)cc6Cl)O5)cc4)CC3)cc2)c1=O` (stereo partly drawn) [Compound 233, 4-(4-(4-(4-(((2S,4R)-2-((1H-imidazol-1-yl)methyl)-2-(2,4-dichlorophenyl)-1,3-dioxolan-4-yl)methoxy)phenyl)piperazin-1-yl)phenyl)-1-sec-butyl-1H-1,2,4-triazol-5(4H)-one], the IC50 in the data set with HUVEC is 0.085 µM. In addition, on CYP3A4, the “CYP3A4 Inhibition (compared to intracozanole at 1 μm)” value came to 1.18.
For `CCC(C)n1ncn(-c2ccc(N3CCN(c4ccc(OC[C@@H]5CO[C@@](Cn6cccn6)(c6ccc(Cl)cc6Cl)O5)cc4)CC3)cc2)c1=O` (stereo partly drawn) [Compound 234, 4-(4-(4-(4-(((2S,4R)-2-((1H-pyrazol-1-yl)methyl)-2-(2,4-dichlorophenyl)-1,3-dioxolan-4-yl)methoxy)phenyl)piperazin-1-yl)phenyl)-1-sec-butyl-1H-1,2,4-triazol-5(4H)-one] the same measures were 0.307 µM and “No inhibition”.
For `CCC(C)n1ncn(-c2ccc(N3CCN(c4ccc(OC[C@@H]5CO[C@@](Cn6ccnc6C)(c6ccc(Cl)cc6Cl)O5)cc4)CC3)cc2)c1=O` (stereo partly drawn) [Compound 235, 1-sec-butyl-4-(4-(4-(4-(((2S,4R)-2-(2,4-dichlorophenyl)-2-((2-methyl-1H-imidazol-1-yl)methyl)-1,3-dioxolan-4-yl)methoxy)phenyl)piperazin-1-yl)phenyl)-1H-1,2,4-triazol-5(4H)-one] the same measures were 0.173 µM and 0.85.
The matching figures for `CCC(C)n1ncn(-c2ccc(N3CCN(c4ccc(OC[C@@H]5CO[C@@](Cn6cnc(C)c6)(c6ccc(Cl)cc6Cl)O5)cc4)CC3)cc2)c1=O` (stereo partly drawn) [Compound 238, 1-sec-butyl-4-(4-(4-(4-(((2S,4R)-2-(2,4-dichlorophenyl)-2-((4-methyl-H-imidazol-1-yl)methyl)-1,3-dioxolan-4-yl)methoxy)phenyl)piperazin-1-yl)phenyl)-1H-1,2,4-triazol-5(4H)-one]: 0.102 µM and 1.18.
For `CCC(C)n1ncn(-c2ccc(N3CCN(c4ccc(OC[C@@H]5CO[C@@](Cn6cc(C(F)(F)F)nc6C)(c6ccc(Cl)cc6Cl)O5)cc4)CC3)cc2)c1=O` (stereo partly drawn) [Compound 239, 1-(sec-butyl)-4-(4-(4-(4-(((2S,4R)-2-(2,4-dichlorophenyl)-2-((2-methyl-4-(trifluoromethyl)-1H-imidazol-1-yl)methyl)-1,3-dioxolan-4-yl)methoxy)phenyl)piperazin-1-yl)phenyl)-1H-1,2,4-triazol-5(4H)-one], in the data set with HUVEC, the IC50 was found to be 0.441 µM. The “CYP3A4 inhibition in the initial screening” value on CYP3A4 (1 μM) is listed as “eliminated”. In addition, on CYP3A4, the “CYP3A4 Inhibition (compared to intracozanole at 1 μm)” value is listed as “No inhibition”.
Take `CCC(C)n1ncn(-c2ccc(N3CCN(c4ccc(OC[C@@H]5CO[C@@](Cn6cc(C)nc6C)(c6ccc(Cl)cc6Cl)O5)cc4)CC3)cc2)c1=O` (stereo partly drawn) [Compound 240, 1-(sec-butyl)-4-(4-(4-(4-(((2S,4R)-2-(2,4-dichlorophenyl)-2-((2,4-dimethyl-1H-imidazol-1-yl)methyl)-1,3-dioxolan-4-yl)methoxy)phenyl)piperazin-1-yl)phenyl)-1H-1,2,4-triazol-5(4H)-one]: in the data set on HUVEC, the IC50 is 0.492 µM. For the same compound, at CYP3A4, the “CYP3A4 Inhibition (compared to intracozanole at 1 μm)” value stood at 0.45.
For `CCC(C)n1ncn(-c2ccc(N3CCN(c4ccc(OC[C@@H]5CO[C@@](Cn6c(C)cnc6C)(c6ccc(Cl)cc6Cl)O5)cc4)CC3)cc2)c1=O` (stereo partly drawn) [Compound 241, 1-(sec-butyl)-4-(4-(4-(4-(((2S,4R)-2-(2,4-dichlorophenyl)-2-((2,5-dimethyl-1H-imidazol-1-yl)methyl)-1,3-dioxolan-4-yl)methoxy)phenyl)piperazin-1-yl)phenyl)-1H-1,2,4-triazol-5(4H)-one], the “Proliferation (IC50/IC50 Itra)” value in the data set with HUVEC (Table 7, relative to itraconazole) amounted to 3.1. Moreover, the IC50 with HUVEC turned out to be 0.492 µM. Further, the “CYP3A4 Inhibition (compared to intracozanole at 1 μm)” value on CYP3A4 is given as 0.27.
With `CCc1nccn1C[C@@]1(c2ccc(Cl)cc2Cl)OC[C@@H](COc2ccc(N3CCN(c4ccc(-n5cnn(C(C)CC)c5=O)cc4)CC3)cc2)O1` (stereo partly drawn) [Compound 243, 1-(sec-butyl)-4-(4-(4-(4-(((2S,4R)-2-(2,4-dichlorophenyl)-2-((2-ethyl-1H-imidazol-1-yl)methyl)-1,3-dioxolan-4-yl)methoxy)phenyl)piperazin-1-yl)phenyl)-1H-1,2,4-triazol-5(4H)-one], the IC50 with HUVEC was 0.225 µM. Moreover, on CYP3A4, the “CYP3A4 Inhibition (compared to intracozanole at 1 μm)” value was found to be 0.08.
Turning to `CCC(C)n1ncn(-c2ccc(N3CCN(c4ccc(OC[C@@H]5CO[C@@](Cc6ccccc6)(c6ccc(Cl)cc6Cl)O5)cc4)CC3)cc2)c1=O` (stereo partly drawn) [Compound 260, 4-(4-(4-(4-(((2R,4R)-2-benzyl-2-(2,4-dichlorophenyl)-1,3-dioxolan-4-yl)methoxy)phenyl)piperazin-1-yl)phenyl)-1-sec-butyl-1H-1,2,4-triazol-5(4H)-one], on CYP3A4, the “CYP3A4 Inhibition (compared to intracozanole at 1 μm)” value is “No inhibition”.
As to “cis-(2R,4S)-4-[4-[4-[4-[[2-(2,4-Dichlorophenyl)-2-(1H-1,2,4-triazol-1-ylmethyl)-1,3-dioxolan-4-yl]methoxy]phenyl]-lpiperazinyl]phenyl]-2,4-dihydro-2-(pent-4-ynyl)-3H-1,2,4-triazol-3-one [Compound 7r]”, the “MB Proliferation (IC50/IC50 Itra)” value in data set [1] is on record as 0.71. For the same compound, the “Proliferation (IC50/IC50 Itra)” value with HUVEC (setting [2]) is reported as 0.14. The “Glycosylation (2 μM dose)” value in the data set with VEGFR2 is reported as “−”. Besides, in the data set on Gli1 transcript, the “Gli I Inhibition (IC90 Prolif. dose)” value was “++ (≤0.15)”.
